Results on eleven compounds are retold here after US8222285B2, “1,3-dihydroxy substituted phenylamide glucokinase activators” (Bristol-Myers Squibb Company, priority 2007, dated 2012).

The first assay deals with T1, human glucokinase (GK) (Homo sapiens, UniProt P35557).
T1 construct: Full-length human hepatic GK (untagged) was expressed in BL21 STAR (DE3)pLysS cells; made in house; host or cells: E. coli BL21 STAR (DE3)pLysS
T1 sequence (P35557 1-466 isoform P35557-2): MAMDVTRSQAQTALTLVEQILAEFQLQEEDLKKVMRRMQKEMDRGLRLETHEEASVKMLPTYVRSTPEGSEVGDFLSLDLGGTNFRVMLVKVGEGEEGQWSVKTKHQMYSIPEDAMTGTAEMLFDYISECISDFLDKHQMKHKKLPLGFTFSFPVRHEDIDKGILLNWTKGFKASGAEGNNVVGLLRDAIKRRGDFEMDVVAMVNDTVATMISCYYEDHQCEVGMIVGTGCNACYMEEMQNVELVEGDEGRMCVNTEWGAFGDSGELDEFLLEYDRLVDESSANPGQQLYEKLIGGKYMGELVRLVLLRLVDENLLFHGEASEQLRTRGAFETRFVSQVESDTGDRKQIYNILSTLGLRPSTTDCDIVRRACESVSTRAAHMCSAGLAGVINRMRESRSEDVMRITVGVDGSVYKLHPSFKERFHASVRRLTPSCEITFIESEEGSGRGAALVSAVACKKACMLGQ
In words: Glucokinase tandem enzymatic assay. The assay is classed as biochemical. The settings on record: 12 mM glucose; expressed as % of basal activation; EC50 could not be calculated; read-out: Maximal activation (%) Human Glucokinase @ 12 mM Glucose. Here is the method:
Glucokinase Tandem Enzymatic Assay
Enzymatic activity of human glucokinase (GK) was measured by incubating GK, ATP, and glucose for discrete time periods followed by quenching with EDTA (ethylenediamine tetra-acetic acid). Relative amounts of product glucose-6-phosphate (G6P) were measured by then running a detection assay using G6P dehydrogenase and measuring the conversion of ThioNAD (thio-nicotinamide adenine dinucleotide) to ThioNADH (thio-dihydronicotinamide adenine dinucleotide) at a wavelength of 405 nm. This ‘uncoupled’ enzymatic reaction is denoted as the GK ‘tandem’ assay. Activation of GK by compounds can be assessed using this assay. The GK tandem assay protocol described below was followed using a range of activator compound concentrations from 0 to 100 μM at 5 and 12 mM of glucose. Human full-length glucokinase (GK, 15 nM) was incubated with 5 or 12 mM glucose in a 384 well black microtiter plate with a clear bottom. To initiate the GK reaction, magnesium-ATP (3 mM final concentration) was added to GK in buffer (final buffer conditions of 25 mM HEPES buffer, pH 7.1, containing 1 mM dithiothreitol and 5% DMSO). The total reaction volume was 20 μL. The reaction was allowed to proceed for ten minutes and was then quenched with 5 μL EDTA; 45 mM final). The components of the detection reaction, ThioNAD and G6PDH (glucose-6-phosphate dehydrogenase) (final concentrations of 650 μM and 3.33 Units, respectively), were then added together in a volume of 25 μL, (to give a total volume of 50 μL). Absorbance measurements were made at 405 nm on a Spectramax Plus 384 absorbance plate reader (Molecular Devices). Absorbance was read, background glucose-6-phosphate levels were subtracted, after which activation was calculated as a percentage of control activity. Control activity was determined using GK in the presence of vehicle (DMSO), with background glucose-6-phosphate subtracted. Background glucose-6-phosphate was determined by pre-quenching GK with EDTA prior to reaction initiation with ATP.
Expression and Purification of Human GK
Full-length human hepatic GK (untagged) was expressed in BL21 STAR (DE3)pLysS cells (Invitrogen) at 25° C. as described by Mookhtiar et al. (1). The protein was purified essentially as described by Lange (2) with a slight modification. Briefly, cell pellets were lysed via three rounds of freezing and thawing, centrifuged at 15000 g for clarification, and precipitated with 40-65% (NH4)2SO4. The resulting pellet was resuspended in buffer, dialyzed, and applied directly to a Q-Sepharose (Sigma) column followed by elution with a linear 100-600 mM KCl gradient. GK containing fractions were pooled, dialyzed overnight vs. 25 mM Hepes pH 7.2/1 mM MgCl2/1 mM EDTA/0.1 M KCl/1 mM DTT, then dialyzed again with same buffer with 10% glycerol added.
With `COC[C@H](C)Oc1cc(O[C@@H](C)Cc2ccccc2)cc(C(=O)Nc2ncc(Oc3cccc(C(=O)O)c3)s2)c1` [Example 32], the Emax is 118%.

For `CC(C)Oc1cc(Oc2ccc(C(=O)N3CCC3)nc2)cc(C(=O)Nc2ncc(Oc3cccc(C(=O)O)c3)s2)c1` [Example 46], the Emax is 124%.

The assay is the same for the next values; noted with them: 12 mM glucose; full-length human GK 15 nM.
As for `COC[C@H](C)Oc1cc(Oc2ccc(S(C)(=O)=O)cc2)cc(C(=O)Nc2ncc(Oc3cccc(C(N)=O)c3)s2)c1` [Example 3], the EC50 (usually the concentration giving half of the maximal effect) amounted to 13 nM.

For `COC[C@H](C)Oc1cc(Oc2ccc(S(C)(=O)=O)cc2)cc(C(=O)Nc2ncc(Oc3cccc(C(=O)O)c3)s2)c1` [Example 4], a half-maximal response (EC50) required 47 nM.

`CC(C)Oc1cc(OC(C)C)cc(C(=O)Nc2ncc(Oc3cccc(C(=O)O)c3)s2)c1` [Example 11] gave an EC50 of 171 nM.

In turn, `CC(C)Oc1cc(OC(C)C)cc(C(=O)Nc2ncc(Oc3ccc(F)nc3)s2)c1` [Example 17] registered an EC50 of 179 nM.

`COC[C@H](C)Oc1cc(Oc2ccc(S(C)(=O)=O)cc2)cc(C(=O)Nc2ncc(Oc3cccc(C(=O)N4CCC4)c3)s2)c1` [Example 33] showed an EC50 of 6 nM.

With `COC[C@H](C)Oc1cc(Oc2ccc(S(C)(=O)=O)cc2)cc(C(=O)Nc2ncc(Oc3cccc(C(=O)N4CC(O)C4)c3)s2)c1` [Example 34], the EC50 turned out to be 16 nM.

For the compound `CS(=O)(=O)c1ccc(Oc2cc(Oc3ccnc(Cl)c3)cc(C(=O)Nc3ncc(Oc4cccc(C(=O)O)c4)s3)c2)cc1` [Example 42], the midpoint of the response, the EC50, lay at 170 nM. This EC50 lies about 11-fold higher than the previous one.

`CC(C)Oc1cc(Oc2ccc(S(C)(=O)=O)nc2)cc(C(=O)Nc2ncc(Oc3cccc(C(=O)O)c3)s2)c1` [Example 45] had an EC50 of 34 nM. Against the preceding compound, the EC50 is about 5-fold lower.

The same assay, now with this note: read-out: Maximal activation (%) Human Glucokinase @ 12 mM Glucose.
With `CNC(=O)Oc1cccc(Oc2cnc(NC(=O)c3cc(Oc4ccc(S(C)(=O)=O)cc4)cc(O[C@@H](C)COC)c3)s2)c1` [Example 38], the Emax was 144%.

A further assay relates to male DIO (diet-induced obese) C57BL/6J mice. In words: Oral glucose tolerance test (OGTT) in DIO mice. It counts as in vivo. The following applies: 30 mg/kg oral, 60 min before 2 g/kg oral glucose; ΔAUC 0-120 min; DIO C57BL/6J mice. As to the method:
In Vivo Studies: Oral Glucose Tolerance Test (OGTT)
Oral glucose tolerance tests were carried out on male DIO (diet-induced obese) C57BL/6J mice fed a high fat diet (60% kcal from fat) for 26 weeks prior to experimentation. Mice were fasted overnight before use for experiments. A test compound or vehicle (10% dimethyl acetamide+10% ethanol+10% Cremophore+70% water) was given orally 60 min before oral administration of a glucose solution at a dose of 2 g/kg body weight (oral glucose tolerance test; OGTT). Blood glucose levels were measured from tail-bled samples taken at different time points before and after administration of glucose (time course of 2 hours). A time curve of the blood glucose was generated and the change from baseline area-under-the curve (ΔAUC) from 0-120 min was calculated (the time glucose administration being time zero).
For the compound `COC[C@H](C)Oc1cc(Oc2ccc(S(C)(=O)=O)cc2)cc(C(=O)Nc2ncc(Oc3cccc(C(=O)O)c3)s2)c1` [Example 4], the “Reduction in Glucose AUC at 30 mg/kg dose” value was 37%.
